Entries after “also recorded” stand apart in the source; their conditions may differ. Like-named read-outs stand apart in the source and are kept apart here. Values belong to the molecule of their own block, whether it stands above or below them. Square brackets hold non-standard residues; d marks the D form. Ends that are not written are not given here. Peptide text beside a SMILES is read from it. Tle = CC(C)(C)[C@H](N)C(=O)O
Tests used:
human DPP IV = human DPP IV (Homo sapiens, UniProt P27487); assay: Cleavage/degradation by DPP IV, HPLC/MS; format: in vitro ADME; conditions: for resistance to cleavage by DPP IV: in comparison to native GLP-1; for degradation by human DPP IV: two hours of treatment with human DPP IV, versus untreated peptide
Method: However, it is most desirable to produce peptide analogs that are not only resistant to proteolysis, but also retain all or much of the biological activity of the native peptide. Accordingly, we conducted a series of experiments to ascertain whether these GLP-1 analogs which display robust resistance to degradation by DPP IV also retain biological activities of native GLP-1
TLE-modified GLP-1 analog was treated with human DPP IV for two hours, and degradation of the analog over time was compared to that of analog in the absence of DPP IV.

thrombin = thrombin (Homo sapiens, UniProt P00734); assay: Thrombin digestion of model peptide, C18 HPLC/MS; format: in vitro ADME; conditions: 4 hours at 23° C., 10 nM thrombin, 0.1 M HEPES pH 8
Method: Briefly, the peptide […] (SEQ ID NO: 31) is a model substrate for thrombin. Thrombin cleaves after the arginine residue. Accordingly, the serine residue of this model peptide is the P′1 positions. WALAPR^↓SFA
To compare digestion of the model peptide analog by thrombin with that of the native model peptide, peptides were digested for 4 hours at 23° C. with 10 nM thrombin in 0.1 M HEPES pH 8, 0.14 M NaCl, 5 mM CaCl2, 0.5% PEG6000. Following digestion, C18 reverse phase HPLC of the digests was compared to the undigested peptides, and the mass spectra of the major peaks are shown for each chromatogram in FIG. 7.

[1] = cited from earlier work

human DPP IV, sequence (P27487 whole entry): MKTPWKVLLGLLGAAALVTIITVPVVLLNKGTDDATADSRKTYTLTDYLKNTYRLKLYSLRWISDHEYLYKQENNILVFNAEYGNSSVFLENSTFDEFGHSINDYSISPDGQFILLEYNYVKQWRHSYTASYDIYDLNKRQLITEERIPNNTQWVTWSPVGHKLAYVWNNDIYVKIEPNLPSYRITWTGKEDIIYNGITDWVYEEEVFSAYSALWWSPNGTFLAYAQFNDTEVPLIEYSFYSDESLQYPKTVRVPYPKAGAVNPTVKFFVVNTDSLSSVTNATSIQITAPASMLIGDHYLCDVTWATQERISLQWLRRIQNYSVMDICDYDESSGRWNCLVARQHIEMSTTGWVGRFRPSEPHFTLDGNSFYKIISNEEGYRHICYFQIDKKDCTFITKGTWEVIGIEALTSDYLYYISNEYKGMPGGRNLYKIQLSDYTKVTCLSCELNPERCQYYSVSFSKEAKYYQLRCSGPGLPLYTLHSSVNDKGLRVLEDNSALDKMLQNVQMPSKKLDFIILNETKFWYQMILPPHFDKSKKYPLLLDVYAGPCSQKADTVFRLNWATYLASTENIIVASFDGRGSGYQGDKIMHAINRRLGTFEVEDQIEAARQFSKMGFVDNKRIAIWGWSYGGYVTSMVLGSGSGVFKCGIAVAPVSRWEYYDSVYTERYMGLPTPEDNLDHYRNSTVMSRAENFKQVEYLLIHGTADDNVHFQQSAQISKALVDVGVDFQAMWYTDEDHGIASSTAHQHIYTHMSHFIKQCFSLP

resistance to cleavage by DPP IV (human DPP IV): resistant to cleavage by DPP IV
Molecule: CC[C@H](C)[C@H](NC(=O)[C@H](Cc1ccccc1)NC(=O)[C@H](CCC(=O)O)NC(=O)[C@H](CCCCN)NC(=O)[C@H](C)NC(=O)[C@H](C)NC(=O)[C@H](CCC(N)=O)NC(=O)CNC(=O)[C@H](CCC(=O)O)NC(=O)[C@H](CC(C)C)NC(=O)[C@H](Cc1ccc(O)cc1)NC(=O)[C@H](CO)NC(=O)[C@H](CO)NC(=O)[C@@H](NC(=O)[C@H](CC(=O)O)NC(=O)[C@H](CO)NC(=O)[C@@H](NC(=O)[C@H](Cc1ccccc1)NC(=O)[C@@H](NC(=O)CNC(=O)C(NC(=O)[C@H](C)NC(=O)[C@@H](N)Cc1c[nH]cn1)C(C)(C)C(=O)O)[C@@H](C)O)[C@@H](C)O)C(C)C)C(=O)N[C@@H](C)C(=O)N[C@@H](Cc1c[nH]c2ccccc12)C(=O)N[C@@H](CC(C)C)C(=O)N[C@H](C(=O)N[C@@H](CCCCN)C(=O)NCC(=O)N[C@@H](CCCNC(=N)N)C(=O)NCC(=O)O)C(C)C (stereo partly drawn) [GLP-1 (3DMA)]

cleavage by thrombin (thrombin): not cleaved by thrombin
Molecule: CC(C)C[C@H](NC(=O)[C@H](C)NC(=O)[C@@H](N)Cc1c[nH]c2ccccc12)C(=O)N[C@@H](C)C(=O)N1CCC[C@H]1C(=O)N[C@@H](CCCNC(=N)N)C(=O)N[C@H](C(=O)N[C@@H](Cc1ccccc1)C(=O)N[C@@H](C)C(=O)O)C(C)(C)C [TLE substituted peptide analog, WALAPRXFA] (H-WALAPR[Tle]FA-OH)

degradation by human DPP IV (human DPP IV): resistant to degradation by DPP IV
Molecule: CC[C@H](C)[C@H](NC(=O)[C@H](Cc1ccccc1)NC(=O)[C@H](CCC(=O)O)NC(=O)[C@H](CCCCN)NC(=O)[C@H](C)NC(=O)[C@H](C)NC(=O)[C@H](CCC(N)=O)NC(=O)CNC(=O)[C@H](CCC(=O)O)NC(=O)[C@H](CC(C)C)NC(=O)[C@H](Cc1ccc(O)cc1)NC(=O)[C@H](CO)NC(=O)[C@H](CO)NC(=O)[C@@H](NC(=O)[C@H](CC(=O)O)NC(=O)[C@H](CO)NC(=O)[C@@H](NC(=O)[C@H](Cc1ccccc1)NC(=O)[C@@H](NC(=O)CNC(=O)[C@@H](NC(=O)[C@H](C)NC(=O)[C@@H](N)Cc1c[nH]cn1)C(C)(C)C)[C@@H](C)O)[C@@H](C)O)C(C)C)C(=O)N[C@@H](C)C(=O)N[C@@H](Cc1c[nH]c2ccccc12)C(=O)N[C@@H](CC(C)C)C(=O)N[C@H](C(=O)N[C@@H](CCCCN)C(=O)NCC(=O)N[C@@H](CCCNC(=N)N)C(=O)NCC(=O)O)C(C)C [TLE-modified GLP-1]

Molecule: GLP-1 (BM): GLP1(7-37) analog wherein the P′1 glutamic acid is substituted by 3-butyl-methyl-glycine (HAXGTFTSDVSSYLEGQAAKEFIAWLVKGRG; non-natural residues)
resistance to cleavage by DPP IV (human DPP IV): resistant to cleavage by DPP IV

Molecule: GLP-1: exogenous GLP-1 given subcutaneously or intravenously to subjects (Deacon et al.); metabolite co-elutes with GLP-I(9-36) amide
degradation of infused GLP-1 ([1]; intravenous infusion): extensively degraded | metabolite share of the increase in plasma immunoreactivity (CO2H-terminal RIA) ([1]; thirty minutes after subcutaneous GLP-1, diabetic patients (n is 8)): 88.5+1.9% | metabolite share of the increase in plasma immunoreactivity (CO2H-terminal RIA) ([1]; thirty minutes after subcutaneous GLP-1, healthy subjects (n=8)): 78.4+3.2%

Molecule: HAE GTFTSDVSSY LEGQAAKEFI AWLVKGRG [GLP-1 (7-37)]
degradation by human DPP IV (human DPP IV): time dependent degradation; also recorded: time dependent loss of peptide

cleavage by thrombin (thrombin): efficiently cleaved by thrombin
Molecule: WALAPRSFA [unmodified peptide]

From US7994121B2, “Stable analogs of peptide and polypeptide therapeutics” (Trustees of Tufts College, priority 2003, dated 2011)
